Measurements: patent US5462957A, “Azole derivatives, pharmaceutical compositions containing the same, and method for treating mycosis and estrogen-dependent diseases” (Kureha Chemical Industry Co., Ltd., priority 1992, dated 1995)
Where two headings read alike, the source gives them in different places.

Assays:
[1] = test system: spontaneous mastocarcinoma; test: Antitumor effects: tumor growth inhibition in rats with mastocarcinoma; assay type: in vivo, Sprague-Dawley rats; settings: Rattus norvegicus, ip, read-out: Tumor growth inhibition rate (%)
Experimental: Fifty-day-old female Sprague-Dawley rats were orally given 7,12-dimethylbenzanthracene (15 mg/kg) and observed for two months. Those rats developing spontaneous mastocarcinoma were selected and divided into groups each consisting of 15 animals: groups each of which is to be given a different compound of the present invention; a group to be given a control compound; and a control group to be given a simple physiological saline solution. Each group was intraperitoneally given the corresponding physiological saline solution or dispersion in an amount of 25 mg/kg daily for 20 consecutive days. Five days after the last administration, the rats were sacrificed to weigh the tumors. The mean tumor weight (T) of the 15 rats of each of the groups which had been given compounds of the present invention or the control compound, and the mean tumor weight (C) of the 15 rats of the control group which had been given a simple physiological saline solution were calculated. The tumor growth inhibition rate of each group was calculated on the basis of the following formula:
Tumor Growth Inhibition Rate (%) = {1-T/C)} × 100. Positive control is 4-hydroxyandrostenedione.

[2] = target: T1, aromatase (Homo sapiens, UniProt P11511); test: Aromatase inhibitory activity (human placenta microsomes, [19-14C]4-androstene-3,17-dione); assay type: biochemical
T1 construct: human placenta microsomes (a protein concentration of 0.1 mg/ml); from tissue; host or cells: human placenta microsomes
T1 sequence (P11511 1-503): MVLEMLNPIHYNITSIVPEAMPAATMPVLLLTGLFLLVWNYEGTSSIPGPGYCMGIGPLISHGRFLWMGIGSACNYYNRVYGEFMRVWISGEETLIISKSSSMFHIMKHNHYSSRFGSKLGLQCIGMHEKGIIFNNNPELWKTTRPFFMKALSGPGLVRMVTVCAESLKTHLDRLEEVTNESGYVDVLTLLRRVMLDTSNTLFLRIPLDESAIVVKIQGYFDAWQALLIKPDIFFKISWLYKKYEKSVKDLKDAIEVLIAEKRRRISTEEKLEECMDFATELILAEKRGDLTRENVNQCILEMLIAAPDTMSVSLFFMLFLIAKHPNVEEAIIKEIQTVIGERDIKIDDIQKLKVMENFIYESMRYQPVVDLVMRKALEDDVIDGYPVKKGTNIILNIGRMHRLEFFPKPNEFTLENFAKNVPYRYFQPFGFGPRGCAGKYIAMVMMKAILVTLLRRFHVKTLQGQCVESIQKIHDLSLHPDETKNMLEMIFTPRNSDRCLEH
Experimental: The aromatase enzyme-inhibitory activity was determined in the manner described by Covey, D. F., Biochem. Biophys. Res. Commu., 157 (1), 81-86, 1988. More specifically, the aromatase-inhibitory activity of a compound of formula (I) was evaluated in terms of the concentration (IC50) of the compound causing 50% inhibition of the aromatase activity.
Aromatase activity was determined in the manner described by Covey, D. F., Biochem. Biophys. Res. Commun. 157 (1), 81-86 (1988).
Aromatase inhibitory activity of the compounds was evaluated in the 50% aromarase-inhibitory concentration (IC50). Microsomes of human-placenta and [19-^14 C]4-androstene-3,17 dione were used as an aromatase source and a substrate, respectively.
The radioactivity of H^14 COOH which was released into a reaction mixture as a result of aromatization was measured to evaluate the aromatase activity.
The aromatase inhibitory activity and the concentration of each compound was depicted in a graph, from which the IC50 was determined.
[19-^14 C]4-Androstene-3,17-dione (1×10^-6 M, 2 KBq/ml), human placenta microsomes (a protein concentration of 0.1 mg/ml), coenzyme NADP (2×10^-3 M), glucose-6-phosphoric acid (4×10^-3 M), and glucose-6-phosphoric acid dehydrogenase (4U/ml) were added to a phosphoric acid buffer solution (67 mM, pH 7.2, 0.5 ml) and reacted at 37° C. for 30 minutes while the mixture was being shaken.
The test compound dissolved in DMSO was added to the reaction mixture and the final concentration of DMSO was in the range of 0.1 to 0.55% by volume per volume.
Chloroform (5 ml) was then added to the reaction mixtures to cease the reaction. The H^14 COOH, which had been released into a reaction mixture, was recovered in a water layer by stirring the reaction mixture. The water layer (0.1 ml) was added to a liquid scintillation cocktail (Atomlight, Dupont, 4 ml) to measure its radioactivity.
The positive control is 4-hydroxyandrostenedione.

[3] = in vivo; settings: mouse, po
Experimental: Acute toxicity by oral route was investigated using ICR-JCL mice.
The compounds of the present invention, Compound Nos. 1, 2, 13, 14, 33, 34, 41, 42, 47, 48, 53, 54, 67, and 68, were dissolved or dispersed in polyethylene glycol 200 or physiological saline. The solution or suspension was given in a prescribed amount by means of a syringe or a stomach tube.

[4] = test system: Candida albicans (IFO 1060); test: Antimycotic activity: survival of mice infected with Candida albicans; assay type: in vivo; settings: IFO1060, 480 h, female ICR mice, oral, 100 mg/kg day for 5 consecutive days, observed for 20 days, control and solvent control 20, read-out: Survival Rate (%)
Experimental: The evaluation of antimycotic activity can be carried out by administering a dosage of the compound in […] that have been inoculated with a strain of Candida albicans, preferably orally, and observing the mortality of the inoculated mice for 20 days.
The survival rate was calculated from the mean survival days.
Five-week-old female ICR mice of 10 animals per group were infected with Candida albicans (IFO 1060) in an amount of 4.8×10^6 cfu (colony forming unit)/mouse through a tail vein.
After one hour following the introduction of the infection, a solution of each compound (see Table 8 below) in polyethylene glycol 200 was orally administered for 5 consecutive days in the amount of 100 mg/kg day.
In Table 8, the solvent group was administered only with polyethylene glycol.

[5] = female Sprague-Dawley rats given 7,12-dimethylbenzanthracene, intraperitoneal, 25 mg/kg daily for 20 consecutive days, mean tumor weight vs saline control
[6] = human placenta microsomes, substrate 1×10^-6 M, pH 7.2, 37° C., 30 minutes, read-out: IC50

Row | SMILES | inhibition in vivo at 25 mg/kg [1, 5] | IC50 [2, 6] | LD50 at 168 h [3] | responders at 100 mg/kg [4] | IC50 [2] | inhibition in vivo at 25 mg/kg [1]
1 | CC1(C)OCC(Cc2ccccc2-c2ccccc2)C1(O)Cn1ccnc1 (stereo not drawn) [Compound No. 68] | 85% | 350 nM | > 1000 mg/kg | 62% | – | –
2 | CC1(C)OCC(Cc2ccc(Cl)cc2)C1(O)Cn1ccnc1 (stereo not drawn) [Compound No. 34, 4-(4-chlorobenzyl)-3-hydroxy-3-(1H-imidazol-l-ylmethyl) -2,2-dimethyltetrahydrofuran] | 80% | – | > 1000 mg/kg | 80% | 500 nM | –
3 | CC1(C)OCC(Cc2ccc(F)cc2F)C1(O)Cn1cncn1 (stereo not drawn) [compound 41] | 48% | – | > 1000 mg/kg | 56% | 3000 nM | –
4 | CC1(C)OCC(Cc2ccc(F)cc2)C1(O)Cn1cncn1 (stereo not drawn) [Compound No. 13, 4-(4-fluorobenzyl)-3-hydroxy-2,2-dimethyl-3 (1H-1,2,4-triazole-1-ylmethyl) tetrahydrofuran] | 58% | – | > 1000 mg/kg | 55% | 5300 nM | –
5 | CC1(C)OCC(Cc2ccccc2-c2ccccc2)C1(O)Cn1cncn1 (stereo not drawn) [Compound No. 67] | 74% | – | > 1000 mg/kg | 53% | 4700 nM | –
6 | CC1OCC(Cc2ccc(F)cc2)C1(O)Cn1ccnc1 (stereo not drawn) [compound 2, 4-(4-fluorobenzyl)-3-hydroxy-3-(imidazol-1-ylmethyl)-2-methyl tetrahydrofuran] | 54% | 530 nM | > 1000 mg/kg | 55% | – | –
7 | CC1(C)OCC(Cc2ccc(C#N)cc2)C1(O)Cn1ccnc1 (stereo not drawn) [Compound No. 54] | 73% | 1000 nM | > 1000 mg/kg | 40% | – | –
8 | CC1(C)OCC(Cc2ccc(Cl)cc2)C1(O)Cn1cncn1 (stereo not drawn) [Compound No. 33, 4-(4-chlorobenzyl)-3-hydroxy-2,2-dimethyl-3-(1H-1,2,4-triazol-1-ylmethyl) tetrahydrofuran] | 65% | – | > 1000 mg/kg | 60% | 7000 nM | –
9 | CC1(C)OCC(Cc2ccc(C#N)cc2)C1(O)Cn1cncn1 (stereo not drawn) [Compound No. 53] | 60% | – | > 1000 mg/kg | 42% | 1200 nM | –
10 | OC1(Cn2ccnc2)COCC1Cc1ccc(F)cc1 (stereo not drawn) [compound 22] | 75% | 630 nM | – | 46% | – | –
11 | CC1(C)OCC(Cc2ccc(Cl)cc2Cl)C1(O)Cn1ccnc1 (stereo not drawn) [compound 48] | 70% | – | > 1000 mg/kg | 53% | 1500 nM | –
12 | CC1OCC(Cc2ccc(F)cc2)C1(O)Cn1cncn1 (stereo not drawn) [Compound No. 1, 4-(4-fluorobenzyl)-3-hydroxy-2-methyl-3-(1H-1,2,4-triazol-1-ylmethyl) tetrahydrofuran] | 60% | – | > 1000 mg/kg | 40% | 6000 nM | –
13 | OC1(Cn2cncn2)COCC1Cc1ccc(F)cc1 (stereo not drawn) [compound 21] | 72% | 4700 nM | – | 37% | – | –
14 | CC1(C)OCC(Cc2ccc(F)cc2F)C1(O)Cn1ccnc1 (stereo not drawn) [compound 42] | 56% | – | > 1000 mg/kg | 63% | 270 nM | –
15 | C[C@]12CCC(=O)C(O)=C1CC[C@@H]1[C@@H]2CC[C@]2(C)C(=O)CC[C@@H]12 [Positive Control, 4-hydroxyandrostenedione, reference compound] | – | – | – | – | – | 48%
16 | CC1(C)OCC(Cc2ccc(Cl)cc2Cl)C1(O)Cn1cncn1 (stereo not drawn) [compound 47] | 55% | – | > 1000 mg/kg | 58% | 1000 nM | –
17 | CC1(C)OCC(Cc2ccc(F)cc2)C1(O)Cn1ccnc1 (stereo not drawn) [Compound No. 14, 4-(4-fluorobenzyl)-3-hydroxy-3-(imidazol-1-ylmethyl)-2,2-dimethyltetrahydrofuran] | 63% | – | > 1000 mg/kg | 70% | 480 nM | –
